From patent publication US11339170B1, “Spiropyrrolidine derived antiviral agents” (priority 2021, dated 2022)

Legend:
SARS-CoV-2 3CL-protease = SARS-CoV-2 3CL-protease (Severe acute respiratory syndrome coronavirus 2 (2019-nCoV) (SARS-CoV-2), UniProt P0DTD1); test: SARS-CoV-2 3C-like (3CL) protease fluorescence assay (FRET); format: biochemical
[1] = tested on: 229E human corona virus (hCoV); test: 229E live virus assay (CPE, ATPlite readout) in MRC-5 cells; format: cell-based, hCoV-229E; conditions: Human coronavirus 229E, MRC5, 144 h, read-out: 229E EC50

| SMILES | IC50 (SARS-CoV-2 3CL-protease) [nM] | EC50 [1] [nM] |
| --- | --- | --- |
| [2H]C([2H])([2H])N(C(=O)C(=O)NC(C)(C)C)[C@@H](CCCC)C(=O)N1C[C@]2(C[C@H]1C#N)C(=O)Nc1ccccc12 [Compound 49] | < 100 | < 100 |
| [2H]C([2H])([2H])N(C(=O)C(=O)Nc1cnc2ccccc2c1)[C@@H](CCCC)C(=O)N1C[C@]2(C[C@H]1C#N)C(=O)Nc1ccccc12 [Compound 50] | < 100 | < 100 |
| [2H]C([2H])([2H])N(C(=O)C(=O)Nc1cnc2ccccc2c1)[C@@H](CC1CC1)C(=O)N1C[C@]2(C[C@H]1C#N)C(=O)Nc1ccccc12 [Compound 51] | < 100 | < 100 |
| CC(C)C[C@@H](C(=O)N1C[C@]2(C[C@H]1C#N)C(=O)Nc1ccccc12)N(C)C(=O)C(=O)Nc1nc2ccccc2[nH]1 [Compound 52] | 100 to 1000 | < 100 |
| CC(C)C[C@@H](C(=O)N1C[C@]2(C[C@H]1C#N)C(=O)Nc1ccccc12)N(C)C(=O)C(=O)Nc1nc2ccccc2o1 [Compound 53] | > 1000 | 100 to 1000 |
| [2H]C([2H])([2H])N(C(=O)C(=O)Nc1ccc(C(F)(F)F)cc1C(F)(F)F)[C@@H](CC1CC1)C(=O)N1C[C@]2(C[C@H]1C#N)C(=O)Nc1ccccc12 [Compound 68] | < 100 | < 100 |
| CC(C)(C)C[C@H](NC(=O)C(=O)NC1CC1)C(=O)N1C[C@]2(C[C@H]1C#N)C(=O)Nc1ccccc12 [Compound 70] | < 100 | < 100 |
| CC(C)(C)C[C@H](NC(=O)C(=O)Nc1c(F)cccc1F)C(=O)N1C[C@]2(C[C@H]1C#N)C(=O)Nc1ccccc12 [Compound 71] | < 100 | < 100 |
| CC(C)(C)C[C@H](NC(=O)C(=O)NC1(c2ccc(F)cc2F)CC1)C(=O)N1C[C@]2(C[C@H]1C#N)C(=O)Nc1ccccc12 [Compound 72] | < 100 | < 100 |
